Measurements as given in patent publication US20260206761A1, “HETEROARYL-TRIAZOLE COMPOUNDS AS PESTICIDES” (Bayer Aktiengesellschaft, priority 2019, published 2026).

Tests used:
Format in all cases: in vivo
[1] = system: brown planthopper (Nilaparvata lugens); test: Nilaparvata lugens spray test; settings: 96 h, after 4 days; for mortality at 100 g/ha: application rate 100 g/ha; for mortality at 500 g/ha: application rate 500 g/ha
Experimental: Nilaparvata lugens—Spray Test
Solvent: 78.0 parts by weight of acetone • • 1.5 parts by weight of dimethylformamide
(§1) Emulsifier: alkylarylpolyglycol ether
(§2) To produce a suitable preparation of active compound, 1 part by weight of active compound is mixed with the stated amount of solvents and is diluted with water, containing an emulsifier concentration of 1000 ppm, to the desired concentration. Further test concentrations are prepared by dilution with emulsifier containing water.
Rice plants (Oryza sativa) are sprayed with a preparation of the active ingredient of the desired concentration and the plants are infested with the brown planthopper (Nilaparvata lugens).
After 4 days mortality in % is determined. 100% means all planthoppers have been killed and 0% means none of the planthoppers have been killed.

[2] = system: southern root-knot nematode (Meloidogyne incognita); test: Meloidogyne incognita test; settings: 336 h, application rate 20 ppm, after 14 days, read-out: nematicidal activity (based on gall formation)
Experimental: Meloidoyne incognita—Test
Solvent: 125.0 parts by weight of acetone
To produce a suitable preparation of active compound, 1 part by weight of active compound is mixed with the stated amount of solvent, and the concentrate is diluted with water to the desired concentration.
Vessels are filled with sand, a solution of the active ingredient, a suspension containing eggs and larvae of the southern root-knot nematode (Meloidogyne incognita) and salad seeds. The salad seeds germinate and the seedlings grow. Galls develop in the roots.
After 14 days the nematicidal activity is determined based on the percentage of gall formation. 100% means no galls were found and 0% means the number of galls found on the roots of the treated plants was equal to that in untreated control plants.

[3] = system: two spotted spidermite (Tetranychus urticae); test: Tetranychus urticae spray test OP-resistant; settings: 144 h, application rate 100 g/ha, after 6 days
Experimental: Tetranychus urticae—Spray Test OP-Resistant
Solvent: 78.0 parts by weight acetone • 1.5 parts by weight dimethylformamide
as §1, §2
French bean (Phaseolus vulgaris) leaf disks infected with all instars of the two spotted spidermite (Tetranychus urticae), are sprayed with a preparation of the active ingredient of the desired concentration.
After 6 days mortality in % is determined. 100% means all spider mites have been killed and 0% means none of the spider mites have been killed.

CC(NC(=O)c1cc(C(F)(F)F)cc(S(C)(=O)=O)c1)c1nc(Cl)nn1-c1ncccn1 (stereo not drawn) [I-30]
mortality at 100 g/ha [1]: 100%

C[C@H](NC(=O)c1cc(C#N)cc([S+](C)[O-])c1)c1ncnn1-c1ccc(C#N)cn1 (stereo partly drawn) [II-12]
mortality at 100 g/ha [1]: 100% | mortality at 500 g/ha [1]: 100%

C[C@H](NC(=O)c1cc(C(F)(F)F)cc(S(C)(=O)=O)c1)c1ncnn1-c1ncccn1 [II-13]
mortality at 100 g/ha [1]: 100% | mortality at 500 g/ha [1]: 100%

C[C@H](NC(=O)c1cc(OC(F)(F)F)cc(C2CC2)c1)c1ncnn1-c1ccccn1 [II-22]
mortality at 500 g/ha [1]: 90% | pest or weed control at 20 ppm [2]: 90%

Cc1nc([C@H](C)NC(=O)c2cc(C(F)(F)F)n(C)n2)n(-c2ncccn2)n1 [II-25]
mortality at 500 g/ha [1]: 90%

C[C@H](NC(=O)c1cc(C2CC2)cc(C(F)(F)F)c1)c1ncnn1-c1ccc(C#N)cn1 [II-26]
mortality at 100 g/ha [3]: 90%

C[C@H](NC(=O)c1cc(Cl)cc(S(=O)(=O)C(F)F)c1)c1ncnn1-c1ncccn1 [II-34]
mortality at 100 g/ha [1]: 100% | mortality at 500 g/ha [1]: 100%

C[C@H](NC(=O)c1cc(C(F)(F)F)cc(C2(C#N)CC2)c1)c1ncnn1-c1ccc(C#N)cn1 [II-47]
mortality at 100 g/ha [3]: 90%

Cc1nc([C@H](C)NC(=O)c2cc(C(F)(F)F)cc(C3(C#N)CC3)c2)n(-c2ccc(C#N)cn2)n1 [II-49]
mortality at 100 g/ha [1]: 100%

Cc1nc([C@H](C)NC(=O)c2cc(C(F)(F)F)cc(S(C)(=O)=O)c2)n(-c2ccc(C#N)cn2)n1 [II-52]
mortality at 100 g/ha [1]: 100%

C[C@H](NC(=O)c1cc(C#N)cc(C2CC2)c1)c1ncnn1-c1ncccn1 [II-54]
mortality at 100 g/ha [1]: 100%
